Reference: patent US10555987B2, “GHRH agonists for the treatment of ischemic disorders” (UNIVERSITY OF MIAMI, priority 2012, dated 2020)
“Also recorded” adds a separate entry of the source. Non-standard residues stand in square brackets, D forms with d. Residues, ends and D or L forms follow the SMILES beside them. *: point of attachment. Phe(F5) = N[C@@H](Cc1c(F)c(F)c(F)c(F)c1F)C(=O)O; Desaminotyrosyl = O=C(CCc1ccc(O)cc1)*; NMeY = CN[C@@H](Cc1ccc(O)cc1)C(=O)O; Agmatine = N=C(N)NCCCCN*; Nle = CCCC[C@H](N)C(=O)O; Orn = NCCC[C@H](N)C(=O)O; Abu = CC[C@H](N)C(=O)O; GABA = NCCCC(=O)O

Key:
[1] = tested on: myocardial infarction (Fisher-344 rats); assay: Echocardiography in rat myocardial infarction model, treatment from 4 weeks post-MI (Example 13); type: in vivo; conditions: mean ± SEM
Procedure: Myocardial infarction (MI) was induced by permanent ligation of the left coronary artery in female 6-month-old Fisher-344 rats. Animals were randomly assigned to receive placebo (DMSO+propylene glycol) or one of the GHRH-agonists (JI-38, MR-356/P-20356, MR-409/P-27409, all 50 μg/kg), starting 4 weeks post-MI. All treatment was given subcutaneously twice daily for 4 weeks.
Echocardiographic measurements were obtained at baseline, 2 days, 1, 2 and 4 weeks. Echocardiographic assessments were performed in anesthetized rats (2% isoflurane inhalation) using a Vevo-770 echocardiogram (Visual Sonics Inc., Toronto, Ontario, Canada) equipped with a 17.5-MHz transducer. Cardiac dimensions: LV end diastolic (LVEDD), end systolic (LVESD) diameters and fractional shortening (FS) were recorded from M-mode images using averaged measurements from 3 to 5 consecutive cardiac cycles according to the American Society of Echocardiography. Ejection fraction (EF) was calculated from bi-dimensional long-axis parasternal views taken through the infarcted area. All images were analyzed using Vevo 770 3.0.0 software (Visual Sonics Inc., Toronto, Ontario, Canada).

[2] = tested on: myocardial infarction (Fischer 344 rats); assay: Echocardiography in rat MI model, treatment from 2 hours post-surgery (Example 14); type: in vivo; conditions: echocardiographic measurements at day 2 post-MI
Procedure: (§1) MI was induced in female 6-month-old Fischer 344 rats by permanent ligation of left ventricular (LV) anterior descending coronary artery. Animals were randomly assigned to receive placebo or one of the following GHRH agonists (MR-356, MR-361, MR-367, MR-403, MR-404, MR-409 and MR-502) starting 2 hours post-surgery. All treatment (50 μg/kg) was given subcutaneously twice daily for 4 weeks. The Institutional Animal Care and Use committee of the University of Miami approved all protocols and experimental procedures.
Longitudinal evaluation of LV remodeling was obtained by echocardiographic measurements between baseline and 4 weeks following MI. Echocardiographic assessments were performed in anesthetized rats (1-2% isoflurane inhalation) using a Vevo-770 echocardiogram (Visual Sonics Inc., Toronto, Ontario, Canada) equipped with 25 MHz transducer. Cardiac dimensions were recorded from M-mode images using averaged measurements from 3 to 5 consecutive cardiac cycles. LV end-diastolic and end-systolic volumes and ejection fraction (EF) were calculated from bi-dimensional long-axis parasternal views taken through the infarcted area. All images were analyzed using Vevo 770 3.0.0 software (Visual Sonics).

[3] = tested on: myocardial infarction (Fischer 344 rats); assay: Morphometric analysis, percentage of infarcted myocardium (Example 14); type: in vivo, rat; conditions: vs. placebo, FIG. 8
Procedure: as §1
Slides were prepared with H&E and Masson's trichrome stain to assess cardiac structure and the presence and extent of myocardial scar, respectively. The percentage of infarcted myocardium was calculated.

[4] = tested on: superfused rat pituitary cells; assay: GH release in superfused rat pituitary cell system (Table 4); type: cell-based; conditions: 1 nM; for GH Response (ng/ml), column 1: replicate 1; for GH Response (ng/ml), column 2: replicate 2
Procedure: Growth hormone releasing activity. Growth hormone releasing was assayed by using a superfused rat pituitary cell system as described in S. Vigh and A. V. Schally, Peptides 5, Suppl: 241-347, 1984. The new synthetic peptide analog of hGHRH P20356 and JI-38 (as control) were administered for 3 minutes (1 mL perfusate) at 1 nM concentration as shown below. Fractions of 1 ml are collected and the GH content in each was determined by ELISA.
Pituitary cells from 2 male rats were used for each channel of the superfusion system. The cells were exposed to 3-min pulses of the new GHRH agonists or to JI-38 as standard every 30 min. Outflowing samples of each channel (1 ml) were collected every 3 min, and GH levels were determined by ELISA.

[5] = tested on: GH release; assay: In vivo endocrine activity, GH release after intravenous administration (Table 8); conditions: rat; for Stimulation of growth hormone levels after intravenous administration (in words): i.v.; for GH releasing potency in vivo relative to JI-38 (=1): i.v. injection
[6] = fraction 1 (P-20356)/21 (JI-38)
[7] = fraction 2 (P-20356)/22 (JI-38)
[8] = fraction 3 (P-20356)/23 (JI-38)
[9] = fraction 4 (P-20356)/24 (JI-38)
[10] = fraction 5 (P-20356)/25 (JI-38)

CCCC[C@H](NC(=O)[C@@H](NC(=O)[C@H](CC(=O)O)NC(=O)[C@H](CCC(N)=O)NC(=O)[C@H](CC(C)C)NC(=O)[C@H](CC(C)C)NC(=O)[C@H](CCCN)NC(=O)[C@H](CCCNC(=N)N)NC(=O)[C@H](C)NC(=O)[C@H](CO)NC(=O)[C@H](CC(C)C)NC(=O)[C@H](CCC(N)=O)NC(=O)[C@H](CC)NC(=O)[C@H](CC(C)C)NC(=O)[C@@H](NC(=O)[C@H](CCCN)NC(=O)[C@H](CCCNC(=N)N)NC(=O)[C@H](Cc1ccc(O)cc1)NC(=O)[C@H](CO)NC(=O)[C@H](CCC(N)=O)NC(=O)[C@@H](NC(=O)[C@H](Cc1ccccc1)NC(=O)[C@@H](NC(=O)[C@H](C)NC(=O)[C@H](CC(=O)O)NC(=O)[C@H](C)NC(=O)CCc1ccc(O)cc1)[C@@H](C)CC)[C@@H](C)O)C(C)C)[C@@H](C)CC)C(=O)N[C@@H](CC(=O)O)C(=O)NCCCCNC(=N)N [JI-38, [Dat^1, Gln^8, Orn^12,21, Abu^15, Nle^27, Asp^28, Agm^29]hGHRH(1-29)NH2, reference compound] (Desaminotyrosyl-ADAIFTQSYR[Orn]VL[Abu]QLSAR[Orn]LLQDI[Nle]D-Agmatine)
EF (4 Weeks) ([1]; 50 μg/kg s.c. twice daily for 4 weeks): 47 ± 2.4 %
EF (Baseline) ([1]; ejection fraction at baseline): 88 ± 1.2%
EF at day 2 post-MI [2]: slightly better preserved
infarct size (MI %) [3]: significantly attenuated; also recorded: substantial reductions
GH Response (ng/ml), Average [4, 6]: 49.27 ng/mL
GH Response (ng/ml), column 1 [4, 6]: 42.46 ng/mL
GH Response (ng/ml), column 2 [4, 6]: 56.07 ng/mL
GH Response (ng/ml), Average [4, 7]: 131.71 ng/mL
GH Response (ng/ml), column 1 [4, 7]: 143.58 ng/mL
GH Response (ng/ml), column 2 [4, 7]: 119.83 ng/mL
GH Response (ng/ml), Average [4, 8]: 194.68 ng/mL
GH Response (ng/ml), column 1 [4, 8]: 222.13 ng/mL
GH Response (ng/ml), column 2 [4, 8]: 167.23 ng/mL
GH Response (ng/ml), Average [4, 9]: 137.45 ng/mL
GH Response (ng/ml), column 1 [4, 9]: 142.96 ng/mL
GH Response (ng/ml), column 2 [4, 9]: 131.93 ng/mL
GH Response (ng/ml), Average [4, 10]: 96.70 ng/mL
GH Response (ng/ml), column 1 [4, 10]: 96.34 ng/mL
GH Response (ng/ml), column 2 [4, 10]: 97.05 ng/mL

CCCC[C@H](NC(=O)[C@@H](NC(=O)[C@H](CC(=O)O)NC(=O)[C@H](CCC(N)=O)NC(=O)[C@H](CC(C)C)NC(=O)[C@H](CC(C)C)NC(=O)[C@H](CCCN)NC(=O)[C@H](CCCNC(=N)N)NC(=O)[C@H](C)NC(=O)[C@H](CO)NC(=O)[C@H](CC(C)C)NC(=O)[C@H](CCC(N)=O)NC(=O)[C@H](CC)NC(=O)[C@H](CC(C)C)NC(=O)[C@@H](NC(=O)[C@H](CCCN)NC(=O)[C@H](CCCNC(=N)N)NC(=O)[C@H](Cc1ccc(O)cc1)NC(=O)[C@H](CO)NC(=O)[C@H](CCC(N)=O)NC(=O)[C@@H](NC(=O)[C@H](Cc1ccccc1)NC(=O)[C@@H](NC(=O)[C@H](C)NC(=O)[C@H](CC(=O)O)NC(=O)[C@@H](C)NC(=O)[C@H](Cc1ccc(O)cc1)NC)[C@@H](C)CC)[C@@H](C)O)C(C)C)[C@@H](C)CC)C(=O)N[C@@H](CC(=O)O)C(=O)NCCCCNC(=N)N [Peptide P-20361, [N—Me-Tyr^1, D-Ala^2, Gln^8, Orn^12, Abu^15, Orn^21, Nle^27, Asp^28, Agm^29] hGHRH (1-29)NH2] (H-[NMeY][dA]DAIFTQSYR[Orn]VL[Abu]QLSAR[Orn]LLQDI[Nle]D-Agmatine)
EF at day 2 post-MI [2]: slightly better preserved

CCCC[C@H](NC(=O)[C@@H](NC(=O)[C@H](CC(=O)O)NC(=O)[C@H](CCC(N)=O)NC(=O)[C@H](CC(C)C)NC(=O)[C@H](CC(C)C)NC(=O)[C@H](CCCN)NC(=O)[C@H](CCCNC(=N)N)NC(=O)[C@H](C)NC(=O)[C@H](CO)NC(=O)[C@H](CC(C)C)NC(=O)[C@H](CCC(N)=O)NC(=O)[C@H](CC)NC(=O)[C@H](CC(C)C)NC(=O)[C@@H](NC(=O)[C@H](CCCN)NC(=O)[C@H](CCCNC(=N)N)NC(=O)[C@H](Cc1ccc(O)cc1)NC(=O)[C@H](CO)NC(=O)[C@H](CC(N)=O)NC(=O)[C@@H](NC(=O)[C@H](Cc1c(F)c(F)c(F)c(F)c1F)NC(=O)[C@@H](NC(=O)[C@H](C)NC(=O)[C@H](CC(=O)O)NC(=O)[C@@H](C)NC(=O)CCc1ccc(O)cc1)[C@@H](C)CC)[C@@H](C)O)C(C)C)[C@@H](C)CC)C(=O)N[C@@H](CO)C(=O)N[C@@H](CCCNC(=N)N)C(=O)NCCCC(N)=O [Peptide P-25502, [Dat^1, D-Ala^2, Fpa5^6, Orn^12, Abu^15, Orn^21, Nle^27, Gab^30]hGHRH(1-30)NH2] (Desaminotyrosyl-[dA]DAI[Phe(F5)]TNSYR[Orn]VL[Abu]QLSAR[Orn]LLQDI[Nle]SR[GABA]-NH2)
Stimulation of growth hormone levels after intravenous administration (in words) [5]: most potent
GH releasing potency in vivo relative to JI-38 (=1) ([5]; 5 min after): 6.76
GH releasing potency in vivo relative to JI-38 (=1) ([5]; 15 min after): 5.40
GH releasing potency in vivo relative to JI-38 (=1) ([5]; 30 min after): 5.83

CCCC[C@H](NC(=O)[C@@H](NC(=O)[C@H](CC(=O)O)NC(=O)[C@H](CCC(N)=O)NC(=O)[C@H](CC(C)C)NC(=O)[C@H](CC(C)C)NC(=O)[C@H](CCCN)NC(=O)[C@H](CCCNC(=N)N)NC(=O)[C@H](C)NC(=O)[C@H](CO)NC(=O)[C@H](CC(C)C)NC(=O)[C@H](CCC(N)=O)NC(=O)[C@H](CC)NC(=O)[C@H](CC(C)C)NC(=O)[C@@H](NC(=O)[C@H](CCCN)NC(=O)[C@H](CCCNC(=N)N)NC(=O)[C@H](Cc1ccc(O)cc1)NC(=O)[C@H](CO)NC(=O)[C@H](CCC(N)=O)NC(=O)[C@@H](NC(=O)[C@H](Cc1ccccc1)NC(=O)[C@@H](NC(=O)[C@H](C)NC(=O)[C@H](CC(=O)O)NC(=O)[C@@H](C)NC(=O)[C@H](Cc1ccc(O)cc1)NC)[C@@H](C)CC)[C@@H](C)O)C(C)C)[C@@H](C)CC)C(=O)N[C@@H](CC(=O)O)C(=O)N[C@@H](CCCNC(=N)N)C(=O)NC [Peptide P-27403, [N—Me-Tyr^1, D-Ala^2, Gln^8, Orn^12, Abu^15, Orn^21, Nle^27, Asp^28]hGHRH(1-29)NH—CH3] (H-[NMeY][dA]DAIFTQSYR[Orn]VL[Abu]QLSAR[Orn]LLQDI[Nle]DR-NHMe)
Stimulation of growth hormone levels after intravenous administration (in words) [5]: most potent
GH releasing potency in vivo relative to JI-38 (=1) ([5]; 15 min after): 5.01
GH releasing potency in vivo relative to JI-38 (=1) ([5]; 30 min after): 4.01
